Reference: the supplement of paper PMC10307832

Experiments:
Assay in all cases: relative viability (nuclei count vs DMSO), 5 days (fraction); higher = more cells survive
[1] = tested on: ABC-1
Summary of the method: (§1)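 Lung cancer cell lines in 1536-well plates got either a single drug or a fixed anchor-drug dose together with five library-drug doses (not always all listed) in √10 steps, by pin tool, on the day after seeding. Nuclei were counted after 5 days, and relative viability is the treated-to-vehicle ratio of nuclei counts. Values are medians of duplicate plates.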

[2] = tested on: NCI-H23
Summary of the method: as §1

[3] = tested on: NCI-H2009
Summary of the method: as §1

[4] = tested on: PC-14
Summary of the method: as §1

[5] = tested on: UMC-11
Summary of the method: as §1

[6] = tested on: LCLC-103H
Summary of the method: as §1

[7] = tested on: SK-MES-1
Summary of the method: as §1

[8] = tested on: HCC-827
Summary of the method: as §1

[9] = tested on: NCI-H661
Summary of the method: as §1

[10] = tested on: LXF-289
Summary of the method: as §1

[11] = tested on: HCC-366
Summary of the method: as §1

[12] = tested on: NCI-H1666
Summary of the method: as §1

[13] = tested on: NCI-H1975
Summary of the method: as §1

[14] = tested on: PC-3 [JPC-3]
Summary of the method: as §1

[15] = tested on: H3255
Summary of the method: as §1

[16] = tested on: NCI-H1437
Summary of the method: as §1

[17] = tested on: NCI-H2087
Summary of the method: as §1

[18] = tested on: NCI-H2085
Summary of the method: as §1

[19] = tested on: LC-2-ad
Summary of the method: as §1

[20] = tested on: COR-L23
Summary of the method: as §1

[21] = tested on: NCI-H2228
Summary of the method: as §1

[22] = tested on: HCC-15
Summary of the method: as §1

SMILES: CCNC(=O)c1noc(-c2cc(C(C)C)c(O)cc2O)c1-c1ccc(CN2CCOCC2)cc1 [Luminespib] + C[C@]1(O)C[C@@H](c2nc(-c3ccc4ccc(-c5ccccc5)nc4c3)c3c(N)nccn32)C1 [Linsitinib] (partner 1 µM)
- relative viability ([1]; first compound 0.002 µM): 0.869
- relative viability ([1]; first compound 0.006325 µM): 0.941
- relative viability ([1]; first compound 0.02 µM): 0.676
- relative viability ([1]; first compound 0.06325 µM): 0.257
- relative viability ([1]; first compound 0.2 µM): 0.227
- relative viability ([2]; first compound 0.002 µM): 0.674
- relative viability ([2]; first compound 0.006325 µM): 0.55
- relative viability ([2]; first compound 0.02 µM): 0.355
- relative viability ([2]; first compound 0.06325 µM): 0.172
- relative viability ([2]; first compound 0.2 µM): 0.136
- relative viability ([3]; first compound 0.002 µM): 1.21
- relative viability ([3]; first compound 0.006325 µM): 1.2
- relative viability ([3]; first compound 0.02 µM): 1.21
- relative viability ([3]; first compound 0.06325 µM): 1.13
- relative viability ([3]; first compound 0.2 µM): 0.0697
- relative viability ([4]; first compound 0.002 µM): 0.896
- relative viability ([4]; first compound 0.006325 µM): 0.897
- relative viability ([4]; first compound 0.02 µM): 1.09
- relative viability ([4]; first compound 0.06325 µM): 0.936
- relative viability ([4]; first compound 0.2 µM): 0.146
- relative viability ([5]; first compound 0.002 µM): 0.997
- relative viability ([5]; first compound 0.006325 µM): 0.993
- relative viability ([5]; first compound 0.02 µM): 0.962
- relative viability ([5]; first compound 0.06325 µM): 0.648
- relative viability ([5]; first compound 0.2 µM): 0.181
- relative viability ([6]; first compound 0.002 µM): 1.14
- relative viability ([6]; first compound 0.006325 µM): 0.971
- relative viability ([6]; first compound 0.02 µM): 1.1
- relative viability ([6]; first compound 0.06325 µM): 1.03
- relative viability ([6]; first compound 0.2 µM): 1.04
- relative viability ([7]; first compound 0.002 µM): 1
- relative viability ([7]; first compound 0.006325 µM): 0.893
- relative viability ([7]; first compound 0.02 µM): 1.13
- relative viability ([7]; first compound 0.06325 µM): 0.916
- relative viability ([7]; first compound 0.2 µM): 0.164
- relative viability ([8]; first compound 0.002 µM): 0.922
- relative viability ([8]; first compound 0.006325 µM): 0.925
- relative viability ([8]; first compound 0.02 µM): 0.937
- relative viability ([8]; first compound 0.06325 µM): 0.974
- relative viability ([8]; first compound 0.2 µM): 1.02
- relative viability ([9]; first compound 0.002 µM): 0.569
- relative viability ([9]; first compound 0.006325 µM): 0.527
- relative viability ([9]; first compound 0.02 µM): 0.369
- relative viability ([9]; first compound 0.06325 µM): 0.395
- relative viability ([9]; first compound 0.2 µM): 0.187
- relative viability ([10]; first compound 0.002 µM): 0.952
- relative viability ([10]; first compound 0.006325 µM): 0.879
- relative viability ([10]; first compound 0.02 µM): 1.12
- relative viability ([10]; first compound 0.06325 µM): 0.711
- relative viability ([10]; first compound 0.2 µM): 0.151
- relative viability ([11]; first compound 0.002 µM): 0.56
- relative viability ([11]; first compound 0.006325 µM): 0.696
- relative viability ([11]; first compound 0.02 µM): 0.462
- relative viability ([11]; first compound 0.06325 µM): 0.0199
- relative viability ([11]; first compound 0.2 µM): 0.0167
- relative viability ([12]; first compound 0.002 µM): 0.707
- relative viability ([12]; first compound 0.006325 µM): 0.785
- relative viability ([12]; first compound 0.02 µM): 0.751
- relative viability ([12]; first compound 0.06325 µM): 0.803
- relative viability ([12]; first compound 0.2 µM): 0.511
- relative viability ([13]; first compound 0.002 µM): 1.08
- relative viability ([13]; first compound 0.006325 µM): 0.882
- relative viability ([13]; first compound 0.02 µM): 0.492
- relative viability ([13]; first compound 0.06325 µM): 0.156
- relative viability ([13]; first compound 0.2 µM): 0.141
- relative viability ([14]; first compound 0.002 µM): 0.963
- relative viability ([14]; first compound 0.006325 µM): 0.939
- relative viability ([14]; first compound 0.02 µM): 0.991
- relative viability ([14]; first compound 0.06325 µM): 0.997
- relative viability ([14]; first compound 0.2 µM): 0.897
- relative viability ([15]; first compound 0.002 µM): 0.929
- relative viability ([15]; first compound 0.006325 µM): 0.868
- relative viability ([15]; first compound 0.02 µM): 0.65
- relative viability ([15]; first compound 0.06325 µM): 0.885
- relative viability ([15]; first compound 0.2 µM): 0.228
- relative viability ([16]; first compound 0.002 µM): 1.06
- relative viability ([16]; first compound 0.006325 µM): 0.989
- relative viability ([16]; first compound 0.02 µM): 1.08
- relative viability ([16]; first compound 0.06325 µM): 0.22
- relative viability ([16]; first compound 0.2 µM): 0.0998
- relative viability ([17]; first compound 0.002 µM): 1.01
- relative viability ([17]; first compound 0.006325 µM): 0.714
- relative viability ([17]; first compound 0.02 µM): 1.08
- relative viability ([17]; first compound 0.06325 µM): 0.263
- relative viability ([17]; first compound 0.2 µM): 0.204
- relative viability ([18]; first compound 0.002 µM): 0.405
- relative viability ([18]; first compound 0.006325 µM): 0.76
- relative viability ([18]; first compound 0.02 µM): 0.826
- relative viability ([18]; first compound 0.06325 µM): 0.442
- relative viability ([18]; first compound 0.2 µM): 0.241
- relative viability ([19]; first compound 0.002 µM): 0.887
- relative viability ([19]; first compound 0.006325 µM): 0.806
- relative viability ([19]; first compound 0.02 µM): 0.808
- relative viability ([19]; first compound 0.06325 µM): 0.165
- relative viability ([19]; first compound 0.2 µM): 0.129
- relative viability ([20]; first compound 0.002 µM): 0.946
- relative viability ([20]; first compound 0.006325 µM): 0.811
- relative viability ([20]; first compound 0.02 µM): 1.03
- relative viability ([20]; first compound 0.06325 µM): 0.0654
- relative viability ([20]; first compound 0.2 µM): 0.0696
- relative viability ([21]; first compound 0.002 µM): 0.612
- relative viability ([21]; first compound 0.006325 µM): 0.629
- relative viability ([21]; first compound 0.02 µM): 0.203
- relative viability ([21]; first compound 0.06325 µM): 0.168
- relative viability ([21]; first compound 0.2 µM): 0.199
- relative viability ([22]; first compound 0.002 µM): 0.837
- relative viability ([22]; first compound 0.006325 µM): 0.873
- relative viability ([22]; first compound 0.02 µM): 0.929
- relative viability ([22]; first compound 0.06325 µM): 0.57
- relative viability ([22]; first compound 0.2 µM): 0.519
